Test [1] concerns MMTV promoter. Description: MMTV agonist assay in A549 MMTV cells. In kind it is cell-based. The conditions noted are these: Homo sapiens, A549, 6 h, >85% = full agonist, >20% and <85% = partial or efficacy selective agonist, read-out: average maximum asymptote in the MMTV agonist assay. The text has this:
Human lung carcinoma A549 cell line (ECACC No. 86012804) has been stably transfected in house with a plasmid containing a renilla luciferase reporter with an MMTV promoter. Stimulation of the cell line with GR agonists results in intracellular signal transduction and ultimately translocation of GR into the nucleus. This activates the inserted DNA sequence resulting in transcription of the integrated luciferase gene, which is quantified using a light emission. The stably transfected cell line was grown as a monolayer in DMEM supplemented with FCS-HI (10%), Non-essential amino acids (1%), L-Glutamine (2 mM), Pen/Strep (1%) and Geneticin (50 mg/ml).
A 90% confluent T175 flask of A549 MMTV cells was harvested by centrifugation for 5 min at 200 g, resuspended in assay buffer (DMEM supplemented with 10% FCS 2×HI, 2 mM Glutamax, Non essential amino acids and 25 mM HEPES) and diluted to 0.1×10^6/ml. 70 μl of cell solution was dispensed to each well of white Nunc 384-well plates, containing compound at the required concentration. Plates were incubated for 6 h at 37° C., 95% humidity, 5% CO2. Plates were equilibrated to room temperature for 1 h prior to the addition of 10 μl of Renilla substrate to each well of assay plates. The plates were covered to protect the reagents from light, and then incubated at room temperature for approximately 15 mins before reading them on a Viewlux. Dose response curves were constructed from which pEC50 and maximum asymptote values were estimated.

Test [2] has as its target T1, glucocorticoid receptor (Homo sapiens, UniProt P04150).
T1 construct: a partially purified full length glucocorticoid receptor
T1 sequence (P04150 1-777): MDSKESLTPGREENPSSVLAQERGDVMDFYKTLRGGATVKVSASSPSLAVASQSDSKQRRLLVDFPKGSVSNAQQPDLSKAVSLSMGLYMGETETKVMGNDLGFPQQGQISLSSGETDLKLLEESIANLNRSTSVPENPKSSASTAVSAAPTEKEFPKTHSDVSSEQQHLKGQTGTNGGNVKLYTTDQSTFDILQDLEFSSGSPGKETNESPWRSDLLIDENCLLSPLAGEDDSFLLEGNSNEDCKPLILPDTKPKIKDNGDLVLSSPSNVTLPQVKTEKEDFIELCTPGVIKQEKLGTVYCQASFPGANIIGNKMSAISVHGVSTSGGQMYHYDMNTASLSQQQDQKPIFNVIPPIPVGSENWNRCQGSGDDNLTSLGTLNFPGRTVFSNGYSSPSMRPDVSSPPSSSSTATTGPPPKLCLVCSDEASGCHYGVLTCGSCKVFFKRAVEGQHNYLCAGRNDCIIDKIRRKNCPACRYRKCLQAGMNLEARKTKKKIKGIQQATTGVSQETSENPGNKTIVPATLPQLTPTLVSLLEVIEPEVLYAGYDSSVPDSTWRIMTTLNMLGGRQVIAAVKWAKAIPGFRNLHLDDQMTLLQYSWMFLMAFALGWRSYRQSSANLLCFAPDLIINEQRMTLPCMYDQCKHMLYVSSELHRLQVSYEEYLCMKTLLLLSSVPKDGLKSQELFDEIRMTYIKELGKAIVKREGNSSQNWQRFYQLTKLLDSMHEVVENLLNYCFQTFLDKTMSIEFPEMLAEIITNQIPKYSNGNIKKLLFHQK
Description: Glucocorticoid receptor binding assay (fluorescence polarisation). The conditions noted are these: competition with Alexa 555 fluorescently-labelled dexamethasone derivative, full length glucocorticoid receptor; read-out: glucocorticoid binding pIC50 (converted). In a few lines: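 Compounds in DMSO incubated with fluorescent dexamethasone and partially purified full-length GR plus stabilising buffer components, 2 hrs at room temperature in the dark. Displacement read as decrease in fluorescence polarisation; pIC50 estimated from dose-response curves.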

The values that follow come from patent publication US8247377B2, “Non-steroidal glucocorticoid inhibitors and their use in treating inflammation, allergy and auto-immune conditions” (Glaxo Group Limited, priority 2006, dated 2012).

Some results are limits rather than exact numbers.

For the compound `CN(CC(O)(CNC(=O)c1cnn(-c2ccc(F)cc2)c1N)C(F)(F)F)C(=O)c1c(Cl)cccc1Cl` (racemic) [Example 1 (racemic), 5-Amino-N-(2-{[[(2,6-dichlorophenyl)carbonyl](methyl)amino]methyl}-3,3,3-trifluoro-2-hydroxypropyl)-1-(4-fluorophenyl)-1H-pyrazole-4-carboxamide], the Emax in test [1] was over 85%. Further, the IC50 in test [2] is at most 316 nM.
Taken in the same sequence, the figures for `CCN(CC(O)(CNC(=O)c1cnn(-c2ccc(F)cc2)c1N)C(F)(F)F)C(=O)c1c(Cl)cccc1Cl` (racemic) [Example 2 (racemic), 5-Amino-N-(2-{[[(2,6-dichlorophenyl)carbonyl](ethyl)amino]methyl}-3,3,3-trifluoro-2-hydroxypropyl)-1-(4-fluorophenyl)-1H-pyrazole-4-carboxamide] were over 85% and at most 316 nM.
Take `Nc1c(C(=O)NCC(O)(CNC(=O)c2c(Cl)cccc2Cl)C(F)(F)F)cnn1-c1ccc(F)cc1` (racemic) [Example 3 (racemic), 5-Amino-N-[2-({[(2,6-dichlorophenyl)carbonyl]amino}methyl)-3,3,3-trifluoro-2-hydroxypropyl]-1-(4-fluorophenyl)-1H-pyrazole-4-carboxamide]: the Emax in test [1] was in the range of 20 to 85%. Further, in test [2], the IC50 was at most 316 nM.
On to `CCN(CC(O)(CNC(=O)c1cnn(-c2ccc(F)cc2)c1N)C(F)(F)F)C(=O)c1c(F)cccc1Cl` (racemic) [Example 4 (racemic), 5-Amino-N-(2-{[[(2-chloro-6-fluorophenyl)carbonyl](ethyl)amino]methyl}-3,3,3-trifluoro-2-hydroxypropyl)-1-(4-fluorophenyl)-1H-pyrazole-4-carboxamide], for which the Emax in test [1] is over 85%. In addition, the IC50 in test [2] is at most 316 nM.
Turning to `CCN(CC(O)(CNC(=O)c1cnn(-c2ccc(F)cc2)c1N)C(F)(F)F)C(=O)c1c(F)cccc1F` (racemic) [Example 5 (racemic), 5-Amino-N-(2-{[[(2,6-difluorophenyl)carbonyl](ethyl)amino]methyl}-3,3,3-trifluoro-2-hydroxypropyl)-1-(4-fluorophenyl)-1H-pyrazole-4-carboxamide], the Emax in test [1] is over 85%. In addition, in test [2], the IC50 was at most 316 nM.
As to `Nc1c(C(=O)NCC(O)(CNC(=O)c2c(F)cccc2Cl)C(F)(F)F)cnn1-c1ccc(F)cc1` (racemic) [Example 7 (racemic), 5-Amino-N-[2-({[(2-chloro-6-fluorophenyl)carbonyl]amino}methyl)-3,3,3-trifluoro-2-hydroxypropyl]-1-(4-fluorophenyl)-1H-pyrazole-4-carboxamide], the Emax in test [1] was in the range of 20 to 85%. The IC50 in test [2] was at most 316 nM.
As to `CN(CC(O)(CNC(=O)c1cnn(-c2ccc(F)cc2)c1N)C(F)(F)F)C(=O)c1c(F)cccc1F` (racemic) [Example 8 (racemic), 5-Amino-N-(2-{[[(2,6-difluorophenyl)carbonyl](methyl)amino]methyl}-3,3,3-trifluoro-2-hydroxypropyl)-1-(4-fluorophenyl)-1H-pyrazole-4-carboxamide], the Emax in test [1] is over 85%. The IC50 in test [2] is at most 316 nM.
Taken in the same sequence, the figures for `CN(CC(O)(CNC(=O)c1cnn(-c2ccc(F)cc2)c1N)C(F)(F)F)C(=O)c1c(F)cccc1Cl` (racemic) [Example 9 (racemic), 5-Amino-N-(2-{[[(2-chloro-6-fluorophenyl)carbonyl](methyl)amino]methyl}-3,3,3-trifluoro-2-hydroxypropyl)-1-(4-fluorophenyl)-1H-pyrazole-4-carboxamide] were over 85% and at most 316 nM.
The like results for `CCN(CC(O)(CNC(=O)c1cnn(-c2ccc(F)cc2)c1N)C(F)(F)F)C(=O)c1ccccc1S(C)(=O)=O` (racemic) [Example 10 (racemic), 5-Amino-N-{2-[(ethyl{[2-(methylsulfonyl)phenyl]carbonyl}amino)methyl]-3,3,3-trifluoro-2-hydroxypropyl}-1-(4-fluorophenyl)-1H-pyrazole-4-carboxamide] were, in that order, over 85% and at most 316 nM.
For `Nc1c(C(=O)NCC(O)(CNC(=O)c2c(Br)cccc2Br)C(F)(F)F)cnn1-c1ccc(F)cc1` (racemic) [Example 11 (racemic), 5-Amino-N-[2-({[(2,6-dibromophenyl)carbonyl]amino}methyl)-3,3,3-trifluoro-2-hydroxypropyl]-1-(4-fluorophenyl)-1H-pyrazole-4-carboxamide], in test [1], the Emax was in the range of 20 to 85%. For the same compound, the IC50 in test [2] was at most 316 nM.
Regarding `Nc1c(C(=O)NCC(O)(CNC(=O)c2c(Cl)cccc2Br)C(F)(F)F)cnn1-c1ccc(F)cc1` (racemic) [Example 12 (racemic), 5-Amino-N-[2-({[(2-bromo-6-chlorophenyl)carbonyl]amino}methyl)-3,3,3-trifluoro-2-hydroxypropyl]-1-(4-fluorophenyl)-1H-pyrazole-4-carboxamide], in test [1], the Emax is 20 to 85%. Also, the IC50 in test [2] is at most 316 nM.
Taken in the same sequence, the figures for `Nc1c(C(=O)NCC(O)(CNC(=O)c2c(F)cccc2Br)C(F)(F)F)cnn1-c1ccc(F)cc1` (racemic) [Example 13 (racemic), 5-Amino-N-[2-({[(2-bromo-6-fluorophenyl)carbonyl]amino}methyl)-3,3,3-trifluoro-2-hydroxypropyl]-1-(4-fluorophenyl)-1H-pyrazole-4-carboxamide] were 20 to 85% and at most 316 nM.
For the compound `Nc1c(C(=O)NCC(O)(CNC(=O)c2c(Cl)cccc2OC(F)F)C(F)(F)F)cnn1-c1ccc(F)cc1` (racemic) [Example 14 (racemic), 5-Amino-N-(2-{[({2-chloro-6-[(difluoromethyl)oxy]phenyl}carbonyl)amino]methyl}-3,3,3-trifluoro-2-hydroxypropyl)-1-(4-fluorophenyl)-1H-pyrazole-4-carboxamide], the Emax in test [1] was 20 to 85%. In addition, in test [2], the IC50 is at most 316 nM.
Turning to `Nc1c(C(=O)NCC(O)(CNC(=O)c2c(C(F)(F)F)cccc2C(F)(F)F)C(F)(F)F)cnn1-c1ccc(F)cc1` (racemic) [Example 15 (racemic), 5-amino-N-{2-[({[2,6-bis(trifluoromethyl)phenyl]carbonyl}amino)methyl]-3,3,3-trifluoro-2-hydroxypropyl}-1-(4-fluorophenyl)-1H-pyrazole-4-carboxamide], in test [1], the Emax lay within 20 to 85%. The IC50 in test [2] was at most 316 nM.
Turning to `CN(CC(O)(CNC(=O)c1cnn(-c2ccc(F)cc2)c1N)C(F)(F)F)C(=O)c1c(Cl)cccc1Br` (racemic) [Example 16 (racemic), 5-amino-N-(2-{[[(2-bromo-6-chlorophenyl)carbonyl](methyl)amino]methyl}-3,3,3-trifluoro-2-hydroxypropyl)-1-(4-fluorophenyl)-1H-pyrazole-4-carboxamide], in test [1], the Emax was over 85%. In addition, in test [2], the IC50 is at most 316 nM.
In the case of `Nc1c(C(=O)NCC(O)(CN(CCF)C(=O)c2c(F)cccc2F)C(F)(F)F)cnn1-c1ccc(F)cc1` (racemic) [Example 17 (racemic), 5-amino-N-(2-{[[(2,6-difluorophenyl)carbonyl](2-fluoroethyl)amino]methyl}-3,3,3-trifluoro-2-hydroxypropyl)-1-(4-fluorophenyl)-1H-pyrazole-4-carboxamide], the Emax in test [1] is over 85%. For the same compound, the IC50 in test [2] was at most 316 nM.
For the compound `Nc1c(C(=O)NCC(O)(CN(CCF)C(=O)c2c(F)cccc2C(F)(F)F)C(F)(F)F)cnn1-c1ccc(F)cc1` (racemic) [Example 18 (racemic), 5-amino-1-(4-fluorophenyl)-N-{3,3,3-trifluoro-2-[((2-fluoroethyl){[2-fluoro-6-(trifluoromethyl)phenyl]carbonyl}amino)methyl]-2-hydroxypropyl}-1H-pyrazole-4-carboxamide], the Emax in test [1] is over 85%. Also, the IC50 in test [2] is at most 316 nM.
